From PMC10808766, “Optimizing drug discovery for snakebite envenoming via a high-throughput phospholipase A2 screening platform” (Frontiers in Pharmacology, 2024)
Where a name gives a salt, the structure may show the parent alone. Read-outs that look alike come from different tables or passages of the source.

What was measured:
[1] = tested on: PLA2 activity of N. nigricollis venom; assay: Miniaturised 384-well colorimetric sPLA2 assay, N. nigricollis venom; settings: for % inhibition: N. nigricollis: re-sourced drugs, 10 µM, 5 ng venom, varespladib normalised as 100%
Experimental: (§1) The final concentrations of DTNB and that of the substrate in the assay were 0.44 and 0.88 mM, respectively.
(§2) Then, 10 µL of snake venom at a concentration appropriate for the venom being screened was added to the plates using the VIAFLO384 and the plates were sealed with adhesive plate seals (Greiner BioOne), spun down and incubated for 25 min at 37°C. To prevent the degradation of any potential photolabile compounds, the plates were wrapped in aluminium foil prior to the incubation step. The plates were then taken out of the incubator and left to acclimatise at room temperature for 5 min.
(§3) To determine percentage inhibition relative to the positive and negative controls we applied the following formula: % inhibition= A− µ pos/µ neg− µ pos×100 where A represents specific activity as determined for each sample, and µ (pos) and µ (neg) represent the means of the specific activity in the positive and negative controls, respectively.
Drugs were plated as before, starting at 10 µM followed by 2-fold dilutions down to 5 pM, with each dilution series plated in quadruplicate. The data were analysed and expressed as described above and the percentage PLA2 inhibition values were used to generate EC50s in Graphpad Prism 9 using a nonlinear regression to fit the dose-response inhibition curve.

[2] = tested on: PLA2 activity of D. russelii venom; assay: Miniaturised 384-well colorimetric sPLA2 assay, D. russelii venom; format: biochemical, Daboia russelii; settings: re-sourced drugs, 10 µM, 30 ng venom, varespladib normalised as 100%
[3] = tested on: PLA2 activity of C. durissus terrificus venom; assay: Miniaturised 384-well colorimetric sPLA2 assay, C. durissus terrificus venom; settings: for EC50: read-out: EC50 (nM) C. durissus terrificus, 2-fold dilutions 10 µM to 5 pM, n = 4; for % inhibition: C. durissus terrificus: re-sourced drugs, 10 µM, 12.5 ng venom, varespladib normalised as 100%
[4] = tested on: PLA2 activity of D. russelii venom; assay: Miniaturised 384-well colorimetric sPLA2 assay, D. russelii venom; format: biochemical, Daboia russelii; settings: for mean inhibition between screen and rescreen / Percent inhibition (PLA2) Rescreen: 10 µM; for mean inhibition between screen and rescreen: D. russelii venom; for EC50: 2-fold dilutions 10 µM to 5 pM, n = 4; for Percentage of Inhibition: Table S1, strong hits, value used for ligand efficiency metrics; for venom PLA2 activity in presence of compound: interleaved validation plates, 10 µM compound; for venom PLA2 activity in presence of compound / Percent inhibition (PLA2) Original / Percent inhibition (PLA2) Rescreen: 20 ng/well D. russelii venom; for Percent inhibition (PLA2) Original: primary screen, 10 µM drug, single point, relative to varespladib (100%) and DMSO (0%); for Percent inhibition (PLA2) Rescreen: rescreen of library hits, average of rescreen (2 ≤ n ≤ 4)
Experimental: Once hydrolysed, this substrate yields a free thiol group that interacts with 5,5′-dithio-bis-(2-nitrobenzoic acid) (DTNB), which is then converted into 2-nitro-5-thiobenzoic acid, causing a change in colour which is measurable at 405 nm. This conversion is measured kinetically and occurs at a linear rate until the substrate is exhausted, at which point the absorbance plateaus. Appropriate PLA2 concentrations are determined to fit within the linear range of the assay and a bee venom positive control is included with the kit. The assay is designed for 96-well plates and is quite costly at GBP£440/96 tests at the time of writing. We wanted to adapt and miniaturise this methodology for high-throughput screening of PLA2 activity and inhibition in 384-well plates to decrease cost and increase output, without compromising assay robustness.
Prior to conducting drug library screens, it was important to assess whether any drift or edge effects occurred in our setup. […] These consisted of full rows of these compounds in a repeating pattern (e.g., DMSO was in rows A, E, I, M, buffer was in rows B, F, J, N, etc.) on a 384-well plate. The assay was conducted as previously described using 20 ng/well of D. russelii venom across the plate. This was repeated three times on different days. To determine PLA2 activity under each of these conditions, the slope of each reaction was calculated by dividing the difference in absorbance at 405 nm between the first two time points in the linear range (tn–t0) by time (in min) where tn was 2 min 41 s in this case. These values were then inputted into the following equation: A µmol/min×mL=slope×0.045/4.6×0.01 where A represents venom activity, 0.045 is a factor representing the total volume of the assay (45 µL), 4.6 is the extinction coefficient of DTNB in 384-well plates, and 0.01 represents the sample size of 10 µL. This activity is then converted into specific activity by dividing the overall activity to the amount of venom in the reaction in micrograms.
Once in house this library was formatted as 11 × 384-well stock plates containing drugs at a concentration of 1 mM in DMSO. […] Assay-ready plates (ARPs) were made by transferring 0.5 µL from each well of the stock plates onto new 384-well plates, so that the layout of the ARP matched that of the stock plate. Venom was added at 10 µL per well (20 ng venom/well) across the plate, except for column 24 which received 10 µL of assay buffer. These latter wells containing control drugs and assay buffer served as the blank. The plates were incubated for 25 min at 37°C, then left to reach room temperature for 5 min. […] The data were analysed as above by calculating the slopes of all reactions on the plate. The average of the slopes of the blanks was then subtracted from each of these values, and specific activity calculated as described and expressed as µmol/min/mL/µg of venom.
These experiments were conducted and analysed as above, with n = 4 repeats per compound.

[5] = parameters: method as in Cerdá et al., 2003; settings: ref Cerdá et al., 2003; cited from earlier work
[6] = tested on: non-small cell lung carcinoma cells; parameters: method as in Wang et al., 2018; settings: ref Wang et al., 2018; cited from earlier work
[7] = tested on: PLA2 activity of N. naja venom; assay: Miniaturised 384-well colorimetric sPLA2 assay, N. naja venom; settings: re-sourced drugs, 10 µM, 40 ng venom, varespladib normalised as 100%
Experimental: as §1, §2, §3

[8] = parameters: method as in Beaudoin, 1985; settings: ref Beaudoin, 1985; cited from earlier work
[9] = parameters: method as in Liu et al., 1987; Coutinho et al., 2000; settings: dose of up to 20 mg/day, trialled in the 1970s in China; ref Liu et al., 1987; Coutinho et al., 2000; cited from earlier work
[10] = tested on: secreted PLA2; parameters: method as in Yu et al., 1997; settings: ref Yu et al., 1997; cited from earlier work
[11] = tested on: PLA2 activity of C. atrox venom; assay: Miniaturised 384-well colorimetric sPLA2 assay, C. atrox venom; settings: re-sourced drugs, 10 µM, 30 ng venom, varespladib normalised as 100%
Experimental: as §1, §2, §3

[12] = tested on: PLA2 activity of B. arietans venom; assay: Miniaturised 384-well colorimetric sPLA2 assay, B. arietans venom; settings: re-sourced drugs, 10 µM, 40 ng venom, varespladib normalised as 100%
Experimental: as §1, §2, §3

[13] = tested on: PLA2 activity of C. durissus terrificus venom; parameters: method as in Cotrim et al., 2011; settings: ref Cotrim et al., 2011; cited from earlier work
[14] = read-out: EC50 (nM) D. russelii

Row | Compound | % inhibition: D. russelii [2] | EC50 [3] [nM] | mean inhibition between screen and rescreen [4] [%] | % inhibition: N naja [7] | % inhibition: N. nigricollis [1] | % inhibition: C. atrox [11] | % inhibition: B. arietans [12] | % inhibition: C. durissus terrificus [3] | further results
1 | O=C1O[C@H]2[C@@H]3OC(=O)c4cc(O)c(O)c(O)c4-c4c(O)c(O)c5oc(=O)c6c(c(O)c(O)c7oc(=O)c4c5c76)-c4c(cc(O)c(O)c4O)C(=O)OC[C@H]3OC(O)[C@@H]2OC(=O)c2cc(O)c(O)c(O)c2-c2c1cc(O)c(O)c2O (mixture of isomers) [Punicalagin, punicalagin] | above 72% | 167 | 71.7 | – | – | – | – | – | EC50 ([1]; read-out: EC50 (nM) N. nigricollis, 2-fold dilutions 10 µM to 5 pM, n = 4): 270 nM; EC50 [4, 14]: 559 nM; Percentage of Inhibition [4]: 83.82; toxicity at high doses in rodents [5]: non-toxic
2 | Cc1cc2c(C(C)C)c(O)c(O)c(C=O)c2c(O)c1-c1c(C)cc2c(C(C)C)c(O)c(O)c(C=O)c2c1O [Gossypol] | – | 69.1 | 76.6 | 30% | 64% | – | – | – | proliferation in non-small cell lung carcinoma cells [6]: inhibited proliferation; teratogenicity [8]: non-teratogenic; efficacy and tolerability as male contraceptive [9]: efficacious and well tolerated; inhibition of secreted PLA2 activity [10]: reported inhibition of secreted PLA2 activity; EC50 [4, 14]: 94.1 nM
3 | CCc1c(C(=O)C(N)=O)c2c(OCC(=O)O)cccc2n1Cc1ccccc1 [Varespladib] | reducing readings to control levels | 5.5 | – | reducing readings to control levels | reducing readings to control levels | reducing readings to control levels | reducing readings to control levels | reducing readings to control levels | inhibition of venom PLA2 activity (reaction rate) ([1]; 10 µM varespladib, elapid venom, Figure 1B): inhibited venom activity to baseline readings; inhibition of venom PLA2 activity (reaction rate) ([4]; 10 µM varespladib, viper venom, Figure 1B): inhibited venom activity to baseline readings; EC50 ([4]; text value in pM, read-out: EC50 against D. russelii venom): 0.5 nM; venom PLA2 activity in presence of compound [4]: dropped sharply; Percent inhibition (PLA2) Original [4]: > 99%
4 | O=C(/C=C/c1ccc(O)c(O)c1/C=C/c1ccc(O)c(O)c1)O[C@H](Cc1ccc(O)c(O)c1)C(=O)O [Salvianolic acid A] | – | – | – | – | – | – | – | – | Percent inhibition (PLA2) Rescreen [4]: failed to reproducibly inhibit
5 | Tannic acid | – | – | 92.1 | – | – | – | – | – | –
6 | CC1(C)C2CCC1(C)C(O)C2 (racemic) [DL-Borneol] | did not re-test as a hit | – | 95.1 | did not re-test as a hit | did not re-test as a hit | did not re-test as a hit | did not re-test as a hit | did not re-test as a hit | –
7 | O=c1c(O)c(-c2ccc(O)c(O)c2)oc2cc(O)cc(O)c12 [Quercetin (dihydrate), quercetin dihydrate] | 42% | – | – | < 15% | < 15% | < 15% | < 15% | ~65% | inhibition of enzymatic PLA2s from C. durissus terrificus venom [13]: previously shown to inhibit; Percent inhibition (PLA2) Original [4]: > 70%; Percent inhibition (PLA2) Rescreen [4]: failed to inhibit
8 | CC(=O)Oc1cc2c(s1)CCN(C(C(=O)C1CC1)c1ccccc1F)C2 (stereo not drawn) [Prasugrel (hydrochloride), prasugrel hydrochloride] | above 72% | – | 83.9 | – | – | – | – | – | Percentage of Inhibition [4]: 89.92
9 | CNC(=O)[C@@H](NC(=O)[C@H](CC(C)C)[C@H](O)C(=O)NO)C(C)(C)C [Marimastat, marimastat] | – | – | – | – | – | – | – | – | venom PLA2 activity in presence of compound [4]: 6–8 μmol/min/mL/µg venom
10 | CC(=O)O.Cc1cc2c(C(C)C)c(O)c(O)c(C=O)c2c(O)c1-c1c(C)cc2c(C(C)C)c(O)c(O)c(C=O)c2c1O | – | – | 89.2 | – | – | – | – | – | –
